Test results taken from ChEMBL document CHEMBL5370642, “Synthesis and Bioevaluation of 3-(Arylmethylene)indole Derivatives: Discovery of a Novel ALK Modulator with Antiglioblastoma Activities” (J Med Chem, 2023).
The source made the active and inactive calls. No cut-off for these calls is given here.

Assays:
[1] = Tmax in C57BL6/J mouse at 5 mg/kg, iv measured upto 24 hrs by LC-MS/MS analysis; type: ADME, organism-based; conditions: in vivo
[2] = AUC (0 to 8hrs) in C57BL6/J mouse at 5 mg/kg, iv measured upto 24 hrs by LC-MS/MS analysis; type: ADME, organism-based; parameters: dose 5 mg/kg, time < 24 hrs, route iv; conditions: in vivo
[3] = AUC (0 to infinity) in C57BL6/J mouse at 5 mg/kg, iv measured upto 24 hrs by LC-MS/MS analysis; type: ADME, organism-based; parameters: dose 5 mg/kg, time < 24 hrs, route iv; conditions: in vivo
[4] = Tmax in C57BL6/J mouse at 5 mg/kg, ip measured upto 24 hrs by LC-MS/MS analysis; type: ADME, organism-based; conditions: in vivo
[5] = AUC (0 to 8hrs) in C57BL6/J mouse at 5 mg/kg, ip measured upto 24 hrs by LC-MS/MS analysis; type: ADME, organism-based; parameters: dose 5 mg/kg, time < 24 hrs, route ip; conditions: in vivo
[6] = AUC (0 to infinity) in C57BL6/J mouse at 5 mg/kg, ip measured upto 24 hrs by LC-MS/MS analysis; type: ADME, organism-based; parameters: time < 24 hrs, dose 5 mg/kg, route ip; conditions: in vivo
[7] = MRT (0 to 8hrs) in C57BL6/J mouse at 5 mg/kg, ip measured upto 24 hrs by LC-MS/MS analysis; type: ADME, organism-based; conditions: in vivo
GL261 [8] = experiment: Anti-glioblastoma activity against mouse GL261-mNeonGreenLuc cells stereotaxically injected in corpus striatum of orthotopic glioblastoma mouse model assessed as decrease in Ki67 expression in GFP-labeled glioblastoma tissue at 5 mg/kg, ip once daily measured on day 21 by confocal microscopy; type: functional, organism-based
[9] = biological target: ALK tyrosine kinase receptor (Mus musculus) (UniProt P97793); experiment: Binding affinity to ALK in mouse GL261 cell lysate assessed as increase in thermal stability of the protein measured after 4 hrs by […] based CETSA analysis; type: subcellular
U-87 MG = experiment: Anti-proliferative activity against human U-87 MG cells assessed as decrease in cell viability at 0.5 to 10 uM by CCK8 assay; type: functional, cell-based; conditions: U-87MG ATCC, dose 0.5-10 µM, time 24-72 hrs, TDE = time-dependent effect
GL261 [10] = experiment: In vivo induction of autophagy in mouse GL261 cells transfected with mRFP-GFPLC3 adenovirus allografted in C57BL/6J mouse model assessed as LC3 puncta in tumor tissue at 2.5 to 5 mg/kg, ip by immunofluorescence assay; type: functional, organism-based; conditions: dose 2.5-5 mg/kg
GL261 [11] = experiment: Induction of autophagy in mouse GL261 cells assessed as cell viability pretreated with 5 uM CQ for 4 hrs followed by treated at 0.5 to 2 uM measured after 48 hrs by CCK8 assay; type: functional, cell-based
GL261 [12] = experiment: Induction of apoptosis in mouse GL261 cells assessed as increase in annexin-V+/PI- cells incubated for 24 to 72 hrs by flow cytometry; type: functional, cell-based; conditions: dose 0.5-2 µM, time 24-72 hrs
[13] = biological target: ALK tyrosine kinase receptor (Homo sapiens, UniProt Q9UM73); conditions: U-87 MG, dose 0.5-2 µM, time 24.0 hrs
Chain of ALK tyrosine kinase receptor (Q9UM73 19-1620 limits assumed): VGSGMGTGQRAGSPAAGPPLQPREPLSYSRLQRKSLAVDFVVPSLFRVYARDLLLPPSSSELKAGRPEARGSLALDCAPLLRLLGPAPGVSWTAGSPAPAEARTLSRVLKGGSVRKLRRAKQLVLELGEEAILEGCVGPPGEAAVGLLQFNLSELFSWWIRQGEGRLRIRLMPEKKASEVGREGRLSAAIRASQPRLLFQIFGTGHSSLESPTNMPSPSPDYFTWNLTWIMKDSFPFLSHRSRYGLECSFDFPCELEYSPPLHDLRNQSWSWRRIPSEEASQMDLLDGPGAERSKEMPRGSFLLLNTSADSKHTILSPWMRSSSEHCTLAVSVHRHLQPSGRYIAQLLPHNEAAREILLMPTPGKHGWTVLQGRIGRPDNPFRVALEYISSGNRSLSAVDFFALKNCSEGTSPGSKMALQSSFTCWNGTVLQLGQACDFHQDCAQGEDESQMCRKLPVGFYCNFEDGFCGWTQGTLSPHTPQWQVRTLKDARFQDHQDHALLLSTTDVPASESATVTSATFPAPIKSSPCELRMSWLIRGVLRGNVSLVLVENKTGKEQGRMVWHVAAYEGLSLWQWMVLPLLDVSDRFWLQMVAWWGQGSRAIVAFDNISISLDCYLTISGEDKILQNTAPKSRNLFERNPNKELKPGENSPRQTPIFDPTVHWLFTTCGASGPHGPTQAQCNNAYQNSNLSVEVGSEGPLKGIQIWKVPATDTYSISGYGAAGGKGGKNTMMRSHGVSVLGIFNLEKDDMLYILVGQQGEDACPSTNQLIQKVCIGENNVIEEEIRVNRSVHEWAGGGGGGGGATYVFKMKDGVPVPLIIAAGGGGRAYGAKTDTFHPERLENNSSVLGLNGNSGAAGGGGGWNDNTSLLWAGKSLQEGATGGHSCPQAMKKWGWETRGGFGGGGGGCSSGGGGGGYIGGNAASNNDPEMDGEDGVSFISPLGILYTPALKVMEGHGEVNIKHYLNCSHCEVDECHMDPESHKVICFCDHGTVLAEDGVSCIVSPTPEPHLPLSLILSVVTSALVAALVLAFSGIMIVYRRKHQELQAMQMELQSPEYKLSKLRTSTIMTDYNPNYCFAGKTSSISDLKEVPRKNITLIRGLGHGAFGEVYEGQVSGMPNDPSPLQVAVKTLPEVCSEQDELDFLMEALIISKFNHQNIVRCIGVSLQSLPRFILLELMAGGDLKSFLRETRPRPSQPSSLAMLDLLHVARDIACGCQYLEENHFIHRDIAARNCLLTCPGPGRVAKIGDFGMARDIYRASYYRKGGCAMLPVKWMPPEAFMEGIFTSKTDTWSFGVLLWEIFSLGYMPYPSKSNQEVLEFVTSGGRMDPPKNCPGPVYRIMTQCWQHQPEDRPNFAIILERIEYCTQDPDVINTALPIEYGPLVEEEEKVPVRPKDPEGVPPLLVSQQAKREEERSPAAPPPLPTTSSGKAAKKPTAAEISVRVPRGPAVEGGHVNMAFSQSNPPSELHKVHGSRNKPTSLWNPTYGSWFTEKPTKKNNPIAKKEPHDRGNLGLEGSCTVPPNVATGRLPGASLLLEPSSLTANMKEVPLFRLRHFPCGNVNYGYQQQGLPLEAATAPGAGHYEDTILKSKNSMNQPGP

Chain of ALK tyrosine kinase receptor (Mus musculus) (P97793 whole entry): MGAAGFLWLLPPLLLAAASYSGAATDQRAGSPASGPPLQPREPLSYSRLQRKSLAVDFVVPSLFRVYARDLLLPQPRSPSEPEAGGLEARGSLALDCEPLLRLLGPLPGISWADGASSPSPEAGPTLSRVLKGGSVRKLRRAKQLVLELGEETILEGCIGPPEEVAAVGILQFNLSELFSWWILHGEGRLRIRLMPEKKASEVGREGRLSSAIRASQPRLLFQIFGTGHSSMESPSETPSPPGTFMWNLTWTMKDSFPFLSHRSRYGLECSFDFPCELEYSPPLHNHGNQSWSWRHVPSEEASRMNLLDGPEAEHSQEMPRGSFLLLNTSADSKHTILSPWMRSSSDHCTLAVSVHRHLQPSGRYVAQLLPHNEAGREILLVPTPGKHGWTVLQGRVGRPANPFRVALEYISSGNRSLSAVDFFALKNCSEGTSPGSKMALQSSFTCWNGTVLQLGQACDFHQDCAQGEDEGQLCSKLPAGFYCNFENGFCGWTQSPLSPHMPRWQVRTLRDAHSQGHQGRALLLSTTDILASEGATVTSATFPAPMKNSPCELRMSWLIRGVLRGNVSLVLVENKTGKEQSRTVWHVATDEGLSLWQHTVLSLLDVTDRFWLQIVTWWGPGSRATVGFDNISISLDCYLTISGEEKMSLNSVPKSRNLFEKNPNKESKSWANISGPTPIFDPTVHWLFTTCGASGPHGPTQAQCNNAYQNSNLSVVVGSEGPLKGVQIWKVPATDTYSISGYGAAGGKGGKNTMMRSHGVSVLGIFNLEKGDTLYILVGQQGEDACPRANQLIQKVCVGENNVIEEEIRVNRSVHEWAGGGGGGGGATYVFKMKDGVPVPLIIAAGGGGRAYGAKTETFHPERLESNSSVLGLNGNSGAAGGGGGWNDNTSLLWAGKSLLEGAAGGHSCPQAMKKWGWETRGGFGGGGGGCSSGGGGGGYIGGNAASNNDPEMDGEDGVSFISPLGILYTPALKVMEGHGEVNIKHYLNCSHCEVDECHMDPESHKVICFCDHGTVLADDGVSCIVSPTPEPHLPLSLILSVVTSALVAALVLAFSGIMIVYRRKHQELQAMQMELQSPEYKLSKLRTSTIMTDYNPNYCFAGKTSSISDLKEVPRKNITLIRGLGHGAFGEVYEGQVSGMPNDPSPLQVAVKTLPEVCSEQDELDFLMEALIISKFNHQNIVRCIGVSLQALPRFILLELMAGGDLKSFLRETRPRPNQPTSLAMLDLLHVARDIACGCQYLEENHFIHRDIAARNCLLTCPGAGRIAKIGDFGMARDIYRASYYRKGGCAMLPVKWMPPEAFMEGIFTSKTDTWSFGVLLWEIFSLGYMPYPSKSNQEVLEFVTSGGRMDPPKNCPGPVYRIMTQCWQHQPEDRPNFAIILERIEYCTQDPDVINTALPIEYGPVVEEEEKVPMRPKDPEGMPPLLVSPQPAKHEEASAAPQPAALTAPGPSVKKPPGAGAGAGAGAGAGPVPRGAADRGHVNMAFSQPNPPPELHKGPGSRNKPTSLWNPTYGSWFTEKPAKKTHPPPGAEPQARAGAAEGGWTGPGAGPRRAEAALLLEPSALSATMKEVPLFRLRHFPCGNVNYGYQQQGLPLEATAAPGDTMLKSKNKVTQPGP

- Tmax [1]: 4.8 min
- AUC(0-t) at 24 h [2]: 885 ng·h/mL
- AUC(0-inf) [3]: 925 ng·h/mL
- Tmax [4]: 34.8 min
- AUC(0-t) at 24 h [5]: 340 ng·h/mL
- AUC(0-inf) [6]: 420 ng·h/mL
- MRT last at 24 h [7]: 135 min
- Activity [9]: Active
- inhibition [13]: Active
SMILES: Cc1ccc(S(=O)(=O)n2cc(Cc3cc(C)c(O)c(C)c3)c3ccccc32)cc1
- Activity (GL261 [8]): Active
- Activity (U-87 MG): Tde
- Activity (GL261 [10]): Active
- Activity (GL261 [11]): inactive
- Activity (GL261 [12]): Dose-Dependent Effect
